# From patent US6767533B1, “Use of a substance binding with the peripheral benzodiazepin receptor for treating skin stress” (Sanofi-Synthelabo, priority 1998, dated 2004)
# pIC50: −log10 of the molar value. Where two headings read alike, the source gives them in different places.
# Legend:
# [1] = target: T1, peripheral benzodiazepine receptor (PBR) (Homo sapiens, UniProt P30536); assay: Binding studies on keratinocyte line A-431 by displacement of [3H]-PK11195
# T1 construct: the peripheral receptor borne by the keratinocytes; host or cells: A-431 human epidermoid carcinoma keratinocyte line
# human keratinocytes = assay: Protection of keratinocytes against UVB-induced cell impairment (apoptosis ELISA); format: cell-based; conditions: UVB 250 J/m^2 for 16 hours, ligand concentration range between 10 nM and 10 μm
# Experimental: The anti-apoptotic activity of the active agents was measured on human keratinocytes and on fibroblasts (ATCC) which were inoculated in 35 mm Petri dishes (5×10^5 cells/well) in DMEM (Dubelco's Mode Eagle Medium) supplemented with 10% fetal calf serum and left to proliferate to the point of confluence. This culture medium is then drawn off, the cells are rinsed and 0.1% fetal calf serum is added in the presence of a saline solution. Increasing concentrations of the substance to be studied are added. Twenty four hours later, the apoptosis is measured with an ELISA (enzyme-linked immunosorbent assay) assay kit.
# Keratinocytes were subjected to ultraviolet radiation of type B (UVB) at a dose of 250 J/m^2 for 16 hours (J. Invest. Dermatol. 1995, 104: 922-927). In the presence of the PBR ligand Ro 5-4864, it was shown that the cell impairment processes induced by the irradiation are prevented in a ligand concentration range of between 10 nM and 10 μm.
# T1 sequence (P30536 whole entry): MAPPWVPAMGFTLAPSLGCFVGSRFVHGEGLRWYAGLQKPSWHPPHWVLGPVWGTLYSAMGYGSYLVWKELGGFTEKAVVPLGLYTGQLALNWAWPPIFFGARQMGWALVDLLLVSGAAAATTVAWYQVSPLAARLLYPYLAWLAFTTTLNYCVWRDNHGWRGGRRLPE
smiles,measurement,setting,value
O=C1CN=C(c2ccccc2Cl)c2cc([N+](=O)[O-])ccc2N1 [clonazepam],displacement of the reference peripheral ligand PK 11195,"[1]; A-431 keratinocyte line, at 3 200 nM",inactive
CN1C(=O)CN=C(c2ccccc2)c2cc(Cl)ccc21 [diazepam],pIC50,[1],~7.00
"CN1C(=O)CN=C(c2ccc(Cl)cc2)c2cc(Cl)ccc21 [Ro 5-4864, chlorodiazepam]",pIC50,"[1]; A-431 keratinocyte line, read-out: IC50, displacement of the reference peripheral ligand PK 11195",~7.60
same,cell impairment processes induced by UVB irradiation,human keratinocytes,prevented
